Data as given in ChEMBL document CHEMBL1201862, “PubChem BioAssay data set” (2004).
Where a name gives a salt, the structure may show the parent alone.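 Growth conditions: 96-well plates. Treatment: test compound, 48 hours, 5 concentrations. Analysis: linear interpolation between bracketing concentrations; unreached endpoints set to highest concentration. GI50 marks 50% less growth.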 Calls of active or inactive are those of the source. Cut-off read from the data, not from the text of the source: active = GI50 up to about 1.1 µM and inactive = higher.

Assays:
Assay in all cases: DTP human tumour cell line panel, 48 h
OVCAR-8 = tested on: OVCAR-8
ACHN = tested on: ACHN
MDA-N = tested on: MDA-N
SK-MEL-28 = tested on: SK-MEL-28
SK-MEL-5 = tested on: SK-MEL-5
SW-620 = tested on: SW-620
NCI-H226 = tested on: NCI-H226
OVCAR-3 = tested on: OVCAR-3
NCI-H522 = tested on: NCI-H522
M14 = tested on: M14
HCT-116 = tested on: HCT-116
MDA-MB-231 = tested on: MDA-MB-231
RXF 393 = tested on: RXF 393
OVCAR-5 = tested on: OVCAR-5
EKVX = tested on: EKVX
SF-268 = tested on: SF-268
KM12 = tested on: KM12
HOP-62 = tested on: HOP-62
CAKI-1 = tested on: CAKI-1
NCI-H460 = tested on: NCI-H460

Measured: GI50

CCOC(=O)C(CCN1CCC2(CC1)C(=O)N(C)CN2c1ccccc1)C(=O)OCC
inactive: OVCAR-8 > 100 µM | ACHN > 100 µM | MDA-N > 100 µM | SK-MEL-28 > 100 µM | SK-MEL-5 > 100 µM | SW-620 > 100 µM | NCI-H226 > 100 µM | OVCAR-3 > 100 µM | NCI-H522 > 100 µM | M14 > 100 µM | HCT-116 > 100 µM | MDA-MB-231 > 100 µM | RXF 393 > 100 µM | OVCAR-5 > 100 µM | EKVX > 100 µM | SF-268 > 100 µM | KM12 > 100 µM | HOP-62 > 100 µM | CAKI-1 > 100 µM | NCI-H460 > 100 µM

CN1CCC(CN2c3ccccc3Sc3ccccc32)C1 (stereo unspecified) [METHDILAZINE HYDROCHLORIDE]
inactive: OVCAR-8 16.5 µM | ACHN 14.7 µM | MDA-N 14.1 µM | SK-MEL-28 6.44 µM | SK-MEL-5 13.7 µM | SW-620 19.2 µM | NCI-H226 19.5 µM | OVCAR-3 14.2 µM | NCI-H522 16.7 µM | M14 10.5 µM | HCT-116 13.9 µM | MDA-MB-231 14 µM | RXF 393 3.5 µM | OVCAR-5 16.7 µM | EKVX 16.8 µM | SF-268 15.3 µM | KM12 17.9 µM | HOP-62 15 µM | CAKI-1 14.7 µM | NCI-H460 13.9 µM

COc1ccc(/C=N/N2C(=O)c3c(N)c(C#N)c(-c4ccccc4)c(-c4ccccc4)c3C2=O)cc1
inactive: OVCAR-8 82.4 µM | ACHN 44.7 µM | MDA-N > 100 µM | SK-MEL-28 > 100 µM | SK-MEL-5 > 100 µM | SW-620 > 100 µM | NCI-H226 > 100 µM | OVCAR-3 > 100 µM | NCI-H522 > 100 µM | M14 > 100 µM | HCT-116 3.65 µM | MDA-MB-231 > 100 µM | RXF 393 72.8 µM | OVCAR-5 > 100 µM | EKVX > 100 µM | SF-268 > 100 µM | KM12 > 100 µM | CAKI-1 > 100 µM | NCI-H460 > 100 µM

CCc1nc(N)nc(N)c1-c1ccc(NC)c([N+](=O)[O-])c1
active: OVCAR-8 0.662 µM | ACHN 0.594 µM | MDA-N 0.173 µM | SK-MEL-5 0.63 µM | SW-620 0.481 µM | M14 0.959 µM | HCT-116 0.219 µM | SF-268 0.815 µM | CAKI-1 0.767 µM | NCI-H460 0.15 µM
inactive: SK-MEL-28 43.7 µM | NCI-H226 28.6 µM | OVCAR-3 10.7 µM | NCI-H522 1.88 µM | MDA-MB-231 27.2 µM | RXF 393 16 µM | OVCAR-5 17.1 µM | EKVX 8.41 µM | KM12 2.76 µM | HOP-62 1.79 µM

O=C(O)c1nn(-c2ccc(Cl)cc2)c2c1C(=O)c1ccccc1C2=O
inactive: OVCAR-8 > 100 µM | ACHN > 100 µM | MDA-N > 100 µM | SK-MEL-28 > 100 µM | SK-MEL-5 20.5 µM | SW-620 > 100 µM | NCI-H226 > 100 µM | OVCAR-3 24.7 µM | NCI-H522 > 100 µM | M14 20 µM | HCT-116 > 100 µM | MDA-MB-231 41.3 µM | RXF 393 17.5 µM | OVCAR-5 > 100 µM | EKVX > 100 µM | SF-268 > 100 µM | KM12 > 100 µM | HOP-62 > 100 µM | CAKI-1 > 100 µM | NCI-H460 62.1 µM

O=C(/C=C/c1ccc(-c2ccccc2)cc1)NCc1ccc(C(=O)NCCc2ccccc2)cc1
inactive: OVCAR-8 36.2 µM | ACHN > 100 µM | MDA-N > 100 µM | SK-MEL-28 > 100 µM | SK-MEL-5 > 100 µM | SW-620 > 100 µM | NCI-H226 > 100 µM | OVCAR-3 > 100 µM | NCI-H522 > 100 µM | M14 > 100 µM | HCT-116 34.4 µM | MDA-MB-231 38.1 µM | RXF 393 24.5 µM | OVCAR-5 > 100 µM | EKVX > 100 µM | SF-268 > 100 µM | KM12 > 100 µM | HOP-62 60.8 µM | CAKI-1 > 100 µM | NCI-H460 > 100 µM

COC(=S)OC1CC(n2cnc3c(=O)[nH]cnc32)OC1CO[Si](C)(C)C(C)(C)C (stereo unspecified)
inactive: OVCAR-8 > 100 µM | ACHN > 100 µM | MDA-N > 100 µM | SK-MEL-28 > 100 µM | SK-MEL-5 > 100 µM | SW-620 > 100 µM | NCI-H226 > 100 µM | OVCAR-3 > 100 µM | NCI-H522 > 100 µM | M14 > 100 µM | HCT-116 > 100 µM | MDA-MB-231 > 100 µM | RXF 393 > 100 µM | OVCAR-5 > 100 µM | EKVX > 100 µM | SF-268 > 100 µM | KM12 > 100 µM | HOP-62 > 100 µM | CAKI-1 > 100 µM | NCI-H460 > 100 µM

O=C1C(CN2CCCC2)CCC1CN1CCCC1 (stereo unspecified)
inactive: OVCAR-8 18.3 µM | ACHN 15.8 µM | MDA-N 16 µM | SK-MEL-28 18.7 µM | SK-MEL-5 17.3 µM | SW-620 4.12 µM | NCI-H226 > 48.2 µM | OVCAR-3 17.1 µM | NCI-H522 1.9 µM | M14 15.8 µM | HCT-116 17.5 µM | MDA-MB-231 13.5 µM | RXF 393 20.4 µM | OVCAR-5 > 41.3 µM | EKVX > 49.7 µM | SF-268 20.8 µM | KM12 > 100 µM | HOP-62 > 100 µM | CAKI-1 11 µM | NCI-H460 > 100 µM

Cc1ccc2nc(/C=N/c3ccccc3Cl)cc(C)c2c1
inactive: OVCAR-8 15.2 µM | ACHN 30.7 µM | MDA-N 5.57 µM | SK-MEL-28 18.9 µM | SK-MEL-5 14.9 µM | SW-620 13.1 µM | NCI-H226 20.6 µM | OVCAR-3 17.5 µM | NCI-H522 20 µM | M14 13.2 µM | HCT-116 4.21 µM | MDA-MB-231 13.2 µM | RXF 393 14.5 µM | OVCAR-5 42.3 µM | EKVX 20.4 µM | SF-268 16 µM | KM12 17.4 µM | HOP-62 38.8 µM | CAKI-1 30.8 µM | NCI-H460 17.2 µM

CCN(CC)c1ccc(/C=C/C2=NN(c3cccc(S(=O)(=O)O)c3)C3(C2)SCC(=O)N3c2nc3ccccc3s2)cc1 (stereo unspecified)
inactive: OVCAR-8 33.6 µM | ACHN 25.8 µM | MDA-N 39 µM | SK-MEL-28 80.4 µM | SK-MEL-5 21.1 µM | SW-620 42.9 µM | NCI-H226 16.8 µM | NCI-H522 18.5 µM | M14 41.8 µM | HCT-116 45.1 µM | MDA-MB-231 55.1 µM | RXF 393 > 100 µM | OVCAR-5 > 100 µM | EKVX 36 µM | SF-268 40.5 µM | KM12 23.9 µM | CAKI-1 76.6 µM | NCI-H460 36.5 µM

CC1(C)CCC[C@]2(C)[C@H]3[C@H](C#N)c4cc(O)c(O)cc4O[C@@]3(C)CC[C@@H]12
inactive: OVCAR-8 > 10 µM | ACHN > 10 µM | MDA-N > 10 µM | SK-MEL-28 > 10 µM | SK-MEL-5 > 10 µM | SW-620 > 10 µM | NCI-H226 > 10 µM | OVCAR-3 > 10 µM | NCI-H522 > 10 µM | M14 > 10 µM | MDA-MB-231 > 10 µM | RXF 393 > 10 µM | OVCAR-5 > 10 µM | EKVX > 10 µM | SF-268 > 10 µM | KM12 > 10 µM | HOP-62 > 10 µM | CAKI-1 > 10 µM | NCI-H460 > 10 µM

C[n+]1c(-c2ccc(/C=N/NC(=O)C(=O)N/N=C/c3ccc(-c4cn5ccccc5[n+]4C)cc3)cc2)cn2ccccc21
inactive: OVCAR-8 > 100 µM | ACHN > 100 µM | MDA-N > 100 µM | SK-MEL-5 91 µM | SW-620 > 100 µM | NCI-H226 > 100 µM | OVCAR-3 45.9 µM | NCI-H522 > 100 µM | M14 > 100 µM | MDA-MB-231 > 100 µM | RXF 393 > 100 µM | OVCAR-5 > 100 µM | EKVX > 100 µM | KM12 > 100 µM | HOP-62 > 100 µM | CAKI-1 > 100 µM | NCI-H460 > 100 µM

O=C(CCc1cccc(O)c1)NCCc1ccc(O)cc1
inactive: OVCAR-8 > 100 µM | ACHN 95.9 µM | MDA-N > 100 µM | SK-MEL-28 > 100 µM | SK-MEL-5 > 100 µM | NCI-H226 > 100 µM | OVCAR-3 > 100 µM | NCI-H522 17.3 µM | M14 > 100 µM | HCT-116 > 100 µM | MDA-MB-231 > 100 µM | RXF 393 > 100 µM | OVCAR-5 > 100 µM | EKVX > 100 µM | SF-268 > 100 µM | KM12 > 100 µM | HOP-62 > 100 µM | CAKI-1 > 100 µM | NCI-H460 > 100 µM

CCNc1ccc2c(c1)C(=O)N(OS(C)(=O)=O)C2=O
inactive: OVCAR-8 > 100 µM | ACHN 37.7 µM | MDA-N 89.7 µM | SK-MEL-28 57.5 µM | SK-MEL-5 41.2 µM | SW-620 37.6 µM | NCI-H226 29 µM | OVCAR-3 40.7 µM | NCI-H522 16.4 µM | M14 42.2 µM | HCT-116 36.5 µM | MDA-MB-231 > 100 µM | RXF 393 32.4 µM | EKVX 62.7 µM | SF-268 > 100 µM | KM12 > 100 µM | HOP-62 > 100 µM | CAKI-1 70 µM | NCI-H460 > 100 µM
